# Data taken from patent US12195430B1, “6-(4,5-bis(4-bromophenyl)-2-(4-methoxyphenyl)-1H-imidazol-1-yl)hexanoic acid as an antimicrobial compound” (KING FAISAL UNIVERSITY, priority 2023, dated 2025).
# What was measured:
# Format in all cases: cell-based
# [1] = test system: Chrysosporium keratinophilum; experiment: Agar plate disc-diffusion, antifungal inhibition zone; conditions: Sabouraud's dextrose agar, 72 h
# Procedure: (§1) The agar plate disc-diffusion method was applied. […] The discs were then placed onto the surface of agar plates (nutrient agar for bacteria and Sabouraud's dextrose agar for fungi) seeded with the test organism. Each plate contained 15 mL of the agar medium, previously seeded with 0.2 mL of the broth culture of each organism pregrown for 18 h. The plates were incubated at 37° C. for 48 h, and 72 h for fungi. The inhibition zones was measured in mm. Discs impregnated with DMSO were used as a control, and its inhibition zone was subtracted from the tested compound actual inhibition zone.
# [2] = test system: Aspergillus flavus; experiment: as above; conditions: Sabouraud's dextrose agar, 72 h
# Procedure: as §1
# [3] = test system: Staphylococcus aureus; experiment: Agar plate disc-diffusion, antibacterial inhibition zone; conditions: nutrient agar, 37° C., 48 h
# Procedure: as §1
# [4] = test system: Pseudomonas aeruginosa; experiment: as above; conditions: nutrient agar, 37° C., 48 h
# Procedure: as §1
# [5] = test system: Bacillus cereus; experiment: as above; conditions: nutrient agar, 37° C., 48 h
# Procedure: as §1
# [6] = test system: Escherichia coli; experiment: as above; conditions: nutrient agar, 37° C., 48 h
# Procedure: as §1
# [7] = A = concentration of comp. = 10,000 μL
# [8] = B = concentration of comp. = 30,000 μL
# [9] = C = concentration of comp. = 50,000 μL
SMILES,"inhibition zone, Chrysosporium keratinophilum [1, 7] [mm]","inhibition zone, Chrysosporium keratinophilum [1, 8] [mm]","inhibition zone, Chrysosporium keratinophilum [1, 9] [mm]","inhibition zone, Aspergillus flavus [2, 7] [mm]","inhibition zone, Aspergillus flavus [2, 8] [mm]","inhibition zone, Aspergillus flavus [2, 9] [mm]","inhibition zone, Staphylococcus aureus [3, 7] [mm]","inhibition zone, Staphylococcus aureus [3, 8] [mm]","inhibition zone, Staphylococcus aureus [3, 9] [mm]","inhibition zone, Pseudomonas aeruginosa [4, 7] [mm]","inhibition zone, Pseudomonas aeruginosa [4, 8] [mm]","inhibition zone, Pseudomonas aeruginosa [4, 9] [mm]","inhibition zone, Bacillus Cereus [5, 7] [mm]","inhibition zone, Bacillus Cereus [5, 8] [mm]","inhibition zone, Bacillus Cereus [5, 9] [mm]","inhibition zone, Escherichia coli [6, 7] [mm]","inhibition zone, Escherichia coli [6, 8] [mm]","inhibition zone, Escherichia coli [6, 9] [mm]"
"COc1ccc(-c2nc(-c3ccc(Br)cc3)c(-c3ccc(Br)cc3)n2CCCCCC(=O)O)cc1 [V, 6-(4,5-bis(4-bromophenyl)-2-(4-methoxyphenyl)-1H-imidazol-1-yl)hexanoic acid]",25,27,47,25,28,35,21,28,38,26,28,40,18,20,35,27,35,49
"O=C(O)c1cn(C2CC2)c2cc(N3CCNCC3)c(F)cc2c1=O [Cip., reference compound]",–,33,55,28,31,43,–,–,–,–,–,–,–,31,–,–,–,–
